Test results: patent US20240182495A1, “ANTIBACTERIAL COMPOUNDS” (JANSSEN SCIENCES IRELAND UNLIMITED COMPANY, priority 2021, published 2024)
≈ marks a conversion by molar mass, not a printed value. Marks after values point to notes of the source that are not given here.

What was measured:
[1] = test system: Mycobacterium tuberculosis strain (EH4.0, GFP-expressing; Test 2: H37Rv); experiment: MIC determination against M. tuberculosis, Test 1 (and/or Test 2); type: cell-based; conditions: 7 days incubation, fluorescence; for IC50: Mycobacterium tuberculosis, H37RV, 168 h
[2] = Chemical stability testing in DMSO, ACN/H2O, ACN/0.1N HCl, ACN/0.1N NaOH (% by LCMS); type: physicochemical; conditions: 30 μM
Experimental: Preliminary Protocol • Add 3 μl of a 10 mM DMSO stock solution to 1 ml of the following solvents in a 1.5 ml HPLC vial. • DMSO (reference solution) • H2O/Acetonitril 1/1 (assay solution) • 0.1N HCl/Acetonitril 1/1 (assay solution) • Mix well, […] LCMS • Compare the chromatograms of the two assay solutions with the reference solution and report the additional peaks as degradation peaks

[3] = target: hERG (Homo sapiens, UniProt Q12809); experiment: sync hERG; type: cell-based
[4] = target: 2C19 (Homo sapiens, UniProt P33261); experiment: CYP cocktail inhibition, 2C19; type: in vitro ADME; conditions: read-out: CYPS IC50 2C19
Description: (§1) The compounds of the invention/examples may have advantages associated with in vitro potency, kill kinetics (i.e. bactericidal effect) in vitro, PK properties, food effect, safety/toxicity (including liver toxicity, coagulation, 5-LO oxygenase), metabolic stability, Ames II negativity, MINT negativity, aqueous based solubility (and ability to formulate) and/or cardiovascular effect e.g. on animals (e.g. anesthetized guinea pig). Data that is generated/calculated may be obtained using standard methods/assays, for instance that are available in the literature or which may be performed by a supplier (e.g. Microsomal Stability Assay—Cyprotex, Mitochondrial toxicity (Glu/Gal) assay—Cyprotex, as well as literature CYP cocktail inhibition assays). GSH can be measured (reactive metabolites, […]) to observe if a dihydrodiol is observed by LCMS (fragmentation ions), which would correspond to a dihydroxylation on the core heterocycle.

[5] = LM Clint (microsomal stability), human; type: in vitro ADME; conditions: human, microsomes
Description: as §1

[6] = target: 2C9 (Homo sapiens, UniProt P11712); experiment: CYP cocktail inhibition, 2C9; type: in vitro ADME; conditions: read-out: CYPS IC50 2C9
Description: as §1

[7] = test system: CYPs (all isoforms, or the isoforms not named for that compound); experiment: CYP cocktail inhibition, all / other isoforms; type: in vitro ADME; conditions: human, read-out: CYPS IC50 (all / others)
Description: as §1

[8] = AMES II; conditions: score
Description: as §1

[9] = Mitochondrial toxicity (Glu/Gal) assay; type: cell-based; also: unit not given here
Description: as §1

[10] = in vitro; conditions: mouse, hepatocytes
[11] = test system: MDCK; experiment: MDCK permeability / efflux; conditions: A to B with inhibitor; also: unit not given here
[12] = LM Clint (microsomal stability), mouse; type: in vitro ADME; conditions: mouse, microsomes
Description: as §1

[13] = physchem
[14] = physchem; type: physicochemical
Description: as §1

[15] = test system: M. tuberculosis H37Rv; conditions: strain H37Rv, inside macrophages; cited from earlier work

2C19, sequence (P33261 whole entry): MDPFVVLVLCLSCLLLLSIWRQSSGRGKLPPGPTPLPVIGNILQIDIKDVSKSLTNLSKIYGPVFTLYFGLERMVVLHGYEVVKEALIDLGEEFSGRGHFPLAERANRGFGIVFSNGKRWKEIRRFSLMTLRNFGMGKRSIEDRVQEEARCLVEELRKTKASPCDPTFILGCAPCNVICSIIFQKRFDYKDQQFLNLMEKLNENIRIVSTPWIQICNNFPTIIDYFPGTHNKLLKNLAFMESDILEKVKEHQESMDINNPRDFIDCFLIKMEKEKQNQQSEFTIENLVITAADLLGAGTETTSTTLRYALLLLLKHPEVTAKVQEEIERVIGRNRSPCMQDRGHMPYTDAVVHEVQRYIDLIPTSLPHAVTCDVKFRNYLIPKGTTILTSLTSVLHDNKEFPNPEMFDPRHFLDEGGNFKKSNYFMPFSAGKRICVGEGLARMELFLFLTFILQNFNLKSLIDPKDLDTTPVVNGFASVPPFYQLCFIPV
hERG, sequence (Q12809 whole entry): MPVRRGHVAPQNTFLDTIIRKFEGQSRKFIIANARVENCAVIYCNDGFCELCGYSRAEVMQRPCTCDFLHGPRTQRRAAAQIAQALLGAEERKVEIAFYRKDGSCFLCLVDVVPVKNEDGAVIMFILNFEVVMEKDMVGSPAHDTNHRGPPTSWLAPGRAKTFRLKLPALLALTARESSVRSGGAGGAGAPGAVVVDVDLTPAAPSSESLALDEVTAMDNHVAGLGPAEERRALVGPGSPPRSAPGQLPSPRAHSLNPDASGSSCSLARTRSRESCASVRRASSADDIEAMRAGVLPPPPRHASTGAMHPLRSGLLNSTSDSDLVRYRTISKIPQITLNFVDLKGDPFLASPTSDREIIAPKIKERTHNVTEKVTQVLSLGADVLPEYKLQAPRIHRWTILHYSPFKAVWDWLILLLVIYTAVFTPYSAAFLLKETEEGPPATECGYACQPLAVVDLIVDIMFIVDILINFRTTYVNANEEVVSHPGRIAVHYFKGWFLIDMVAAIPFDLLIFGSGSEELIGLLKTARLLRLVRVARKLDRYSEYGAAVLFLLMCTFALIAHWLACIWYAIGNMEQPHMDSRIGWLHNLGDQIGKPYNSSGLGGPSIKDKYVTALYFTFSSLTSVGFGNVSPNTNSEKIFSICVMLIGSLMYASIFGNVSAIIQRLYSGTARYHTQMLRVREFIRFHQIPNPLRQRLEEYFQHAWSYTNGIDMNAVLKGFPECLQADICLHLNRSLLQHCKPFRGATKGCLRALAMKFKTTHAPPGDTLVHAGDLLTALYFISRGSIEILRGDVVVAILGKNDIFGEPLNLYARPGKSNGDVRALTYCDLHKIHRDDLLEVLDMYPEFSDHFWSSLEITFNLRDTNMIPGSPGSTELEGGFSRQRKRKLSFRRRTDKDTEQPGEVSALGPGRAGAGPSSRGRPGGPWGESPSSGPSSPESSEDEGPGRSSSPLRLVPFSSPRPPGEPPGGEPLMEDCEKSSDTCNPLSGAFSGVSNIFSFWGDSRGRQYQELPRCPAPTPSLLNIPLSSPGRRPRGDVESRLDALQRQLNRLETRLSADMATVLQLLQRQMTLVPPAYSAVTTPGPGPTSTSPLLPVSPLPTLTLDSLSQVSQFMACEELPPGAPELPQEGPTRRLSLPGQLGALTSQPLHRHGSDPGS
2C9, sequence (P11712 whole entry): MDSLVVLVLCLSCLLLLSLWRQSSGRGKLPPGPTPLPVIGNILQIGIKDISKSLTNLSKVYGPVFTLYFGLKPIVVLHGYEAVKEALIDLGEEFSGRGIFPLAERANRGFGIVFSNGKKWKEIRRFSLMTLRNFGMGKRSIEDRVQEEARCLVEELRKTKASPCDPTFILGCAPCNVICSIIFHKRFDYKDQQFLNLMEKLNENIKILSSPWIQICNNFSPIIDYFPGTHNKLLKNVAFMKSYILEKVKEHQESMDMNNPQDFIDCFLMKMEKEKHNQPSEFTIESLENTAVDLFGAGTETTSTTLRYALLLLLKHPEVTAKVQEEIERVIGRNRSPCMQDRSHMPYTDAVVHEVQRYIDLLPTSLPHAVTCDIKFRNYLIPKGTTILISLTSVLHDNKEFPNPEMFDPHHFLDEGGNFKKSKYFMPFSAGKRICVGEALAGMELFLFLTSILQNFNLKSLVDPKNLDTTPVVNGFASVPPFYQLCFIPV

CCc1nc2ncc(C)cn2c1C(=O)NCc1ccc(C2CCN(c3nc4n(n3)CCN(S(=O)(=O)C(F)(F)F)C4)C2)cc1 (stereo not shown) [Compound 69]
IC50 [1]: 15.1 nM

CCc1nc2ncc(C)cn2c1C(=O)NCc1ccc(N2CCN(c3nc4n(n3)CCN(S(=O)(=O)C(F)(F)F)C4)CC2)cc1 [Compound 70]
IC50 [1]: 91.2 nM

CCc1nc2ncc(C)cn2c1C(=O)NCc1cccc(Cc2nc3n(n2)CCN(S(=O)(=O)C(F)(F)F)C3)c1 [Compound 71]
pIC50 [1]: <6.3*

CCc1nc2ncc(C)cn2c1C(=O)NCc1coc(-c2nc3n(n2)CCN(S(=O)(=O)C(F)(F)F)C3)n1 [Compound 72]
pIC50 [1]: <6.3

CCc1nc2ncc(C)cn2c1C(=O)NCc1csc(-c2nc3n(n2)CCN(S(=O)(=O)C(F)(F)F)C3)n1 [Compound 73]
IC50 [1]: > 501 nM

CCc1nc2ncc(C)cn2c1C(=O)NCc1cnc(-c2nc3n(n2)CCN(S(=O)(=O)C(F)(F)F)C3)s1 [Compound 74]
IC50 [1]: 309 nM

CCc1nc2ncc(C)cn2c1C(=O)NCc1nc(-c2nc3n(n2)CCN(S(=O)(=O)C(F)(F)F)C3)cs1 [Compound 75]
IC50 [1]: > 501 nM

CCc1nc2ncc(C)cn2c1C(=O)NCc1nnc(-c2nc3n(n2)CCN(S(=O)(=O)C(F)(F)F)C3)s1 [Compound 76]
IC50 [1]: > 501 nM

CCc1nc2ncc(Cl)cn2c1C(=O)NCc1cnc(-c2nc3n(n2)CCN(S(=O)(=O)C(F)(F)F)C3)c(F)c1 [Compound 77]
IC50 [1]: 457 nM

CCc1nc2cc(N)c(Cl)cn2c1C(=O)NCc1cnc(-c2nc3n(n2)CCN(S(=O)(=O)C(F)(F)F)C3)c(F)c1 [Compound 78]
IC50 [1]: > 501 nM

CCc1nc2ccc(C)cn2c1C(=O)NCc1ccc(-c2cn3c(n2)CN(S(=O)(=O)C(F)(F)F)CC3)cc1 [Compound 79]
chemical stability (% by LCMS) ([2]; 0 h): 100%
chemical stability (% by LCMS) ([2]; 48 h): 100%
chemical stability (% by LCMS) ([2]; 48 h, pH 1.6): 100%
IC50 [3]: 30200 nM
IC50 [4]: 14400 nM
microsomal CLint [5]: 39.8 µL/min/mg
IC50 [6]: 17700 nM
IC50 [7]: > 20000 nM
AMES II [8]: 1
Glu/Gal: Gal ([9]; galactose medium): > 200
Glu/Gal: Glu ([9]; glucose medium): > 200
half-life [10]: 43.3 min
MDCK AB+inh [11]: 42.7
IC50 [1]: 6.76 nM
microsomal CLint [12]: 13.2 µL/min/mg
solubility ([13]; fassif): 5.6 µM (≈ 3.06 µg/mL)
solubility ([13]; fessif): 29.3 µM (≈ 16 µg/mL)
solubility thermodynamic ([14]; pH 2, simulated gastric fluid, thermodynamic from solid): 574 µM (≈ 314 µg/mL)
solubility thermodynamic ([14]; pH 4, aqueous buffer): 0.062 µM (≈ 0.0339 µg/mL)

CCc1nc2ccc(C)cn2c1C(=O)NCc1ccc(-c2cc3n(n2)CCN(S(=O)(=O)C(F)(F)F)C3)cc1 [Compound 81]
chemical stability (% by LCMS) ([2]; 0 h): 95%
chemical stability (% by LCMS) ([2]; 48 h): 100%
chemical stability (% by LCMS) ([2]; 48 h, pH 1.6): 100%
IC50 [1]: 20.4 nM

CCc1nc2ccc(Cl)cn2c1C(=O)NCc1ccc(N2CCC(c3ccc(OC(F)(F)F)cc3)CC2)cc1 [Compound Q203]
MIC50 [15]: 0.00028 µM (≈ 0.000156 µg/mL)
